# Assay results as given in article PMC8704709, “Improved Anticancer Activities of a New Pentafluorothio-Substituted Vorinostat-Type Histone Deacetylase Inhibitor” (Pharmaceuticals, 2021).
# What was measured:
# [1] = tested on: SMZ1 cells; experiment: IC50 by Annexin-V/7AAD dual staining, flow cytometry; assay type: cell-based; settings: Homo sapiens, as determined after 48 h, means ± SEM, n ≥ 3, read-out: Growth inhibitory activity IC50, SMZ1
# Method: Stock solutions (10 mM) prepared by dissolution in DMSO were stored at −20 °C. Working solutions were always freshly prepared before each experiment by dilution of stock solution with medium. The final DMSO concentration never exceeded 0.25%. Treatment-induced changes in cell number were determined by crystal violet (N-hexamethylpararosaniline from Sigma Aldrich) staining. 1000 cells/well (DU145) or 1500 cells/well (Hep-G2) were seeded in 96-well plates and maintained for adherence in an incubator (37 °C, 5% CO2, humidified atmosphere) for 48 h prior to the beginning of the treatment. […] Thereafter, the cells were fixed with 1% glutaraldehyde and stained with 0.1% crystal violet. The unbound dye was removed by rinsing with water. Bound crystal violet was solubilized with 0.2% Triton X-100 (Sigma-Aldrich). Light extinction of crystal violet, which increases linearly with the cell number, was analyzed at 570 nm using an ELISA-Reader (Dynex Technologies, Denkendorf, Germany). For T-cell leukemia/lymphoma cell lines apoptosis was determined using dual staining for Annexin-V and 7AAD via flow cytometry.
# [2] = tested on: DU145 cells; experiment: Unspecific cytotoxicity (LDH release); assay type: cell-based, human; settings: 1–10 µM, 3 and 24 h
# Method: To exclude unspecific cytotoxicity as the driving mode of action for antiproliferative effects, the release of lactate dehydrogenase (LDH) from DU145 cells was determined after 3 h and 24 h of treatment using the Cytotoxicity Detection Kit PLUS LDH (Roche Diagnostics GmbH, Mannheim, Germany). The assay was performed as described earlier. Cytotoxicity was determined by subtracting the percentage of LDH release into the supernatant under control conditions of those from treated samples. Measurements were performed in duplicate in n = 3 independent experiments and mean percentage changes ± SEM as compared to controls are shown.
# [3] = tested on: Hep-G2 cells; experiment: Unspecific cytotoxicity (LDH release); assay type: cell-based, human; settings: 1–10 µM, 3 and 24 h
# [4] = tested on: caspase-3 activity in DU145 cells; experiment: Apoptosis-specific caspase-3 activation (AC-DEVD-AMC cleavage); assay type: cell-based, human; settings: 24 h treatment, 1–10 µM
# Method: (§1) Changes in caspase-3 activity were measured by the cleavage of the fluorogenic substrate AC-DEVD-AMC (EMD Millipore, Billerica, MA, USA), as described previously. […] Subsequently, the lysates were incubated for 1 h at 37 °C with a substrate solution containing 20 μg/mL AC-DEVD-AMC, 20 mM HEPES, 10% glycerol and 2 mM DTT at pH 7.5.
# [5] = tested on: caspase-3 activity in Hep-G2 cells; experiment: as above; assay type: cell-based, human; settings: 24 h treatment, 1–10 µM
# Method: as §1
# [6] = tested on: DU145 cells; experiment: Cytosolic ROS formation (CellROX Orange fluorescence microscopy); assay type: cell-based, human; settings: 6–24 h
# Method: (§2) Untreated cells incubated with 1.6 mM H2O2 for 30 min served as positive controls. CellROX® Orange reagent (1 µM) was applied, when adding the test compounds. Formation of ROS was measured after 3 h, 6 h, 12 h (not shown) and 24 h using ZOE™ Fluorescent Cell Imager (Biorad, Munich, Germany). n = 3 independent experiments performed in triplicate for each condition.
# [7] = tested on: Hep-G2 cells; experiment: as above; assay type: cell-based, human; settings: 6–24 h
# Method: as §2
# [8] = tested on: DU145 cells; experiment: Western blot in DU145 cells (acetyl-H3, PARP, EGFR, P-mTOR); assay type: cell-based, human; settings: 24 h
# Method: (§3) Western blots were performed as described earlier. Cells were seeded in 100 mm petri dishes, grown to almost confluency, treated for 24 h, washed and frozen, followed by lysis with RIPA Buffer, added with one cOmplete™ Mini protease Inhibitor tablet/10 mL (Roche), and quantification with Pierce^TM BCA Protein Assay Kit (Thermo Fisher Scientific). Thereafter protein levels were normalized to untreated controls so equal protein loading of 20 µg/lane. Laemmli Buffer and β-mercaptoethanol were added before probes were desaturated at 96 °C for 10 min. First, 7.5% or 12% SDS gels (Biorad, Munich, Germany) were loaded with proteins and electrophoresis was done. Thereafter, proteins were transferred to activated polyvinylidene difluoride membranes (PVDF) by electroblotting. Finally, the membranes were blocked with 1% BSA and incubated with primary antibodies over night at 4 °C.
# (§4) Blots were washed three times with 1% TBS-Tween and incubated with anti-mouse or anti-rabbit peroxidase-coupled anti-IgG secondary antibodies (1:5000–1:10,000) at room temperature for 60 min. Subsequently, antibody bondage was illustrated using Clarity and Clarity Max ECL Western Blotting Substrates (Biorad, Munich, Germany) for detection and Celvin-S developer (Biostep, software SnapAndGo Vs 1.8.1) for development. […] Values were normalized to β-actin expression, which served as a loading control and compared to untreated control expressions which was set at 1. The mean ± SEM of the relative values to control are illustrated with Graph Pad Prism 8.
# [9] = tested on: Hep-G2 cells; experiment: Western blot in Hep-G2 cells (acetyl-H3, Apaf-1, Bcl-2); assay type: cell-based, human; settings: 24 h
# Method: as §3, with “°C. […] Only the Jurkat cells had already a high level of α-tubulin in untreated cells and, thus, drug-induced changes were not detectable in these cells.” for “°C.”
# as §4
smiles,measurement,setting,value
"O=C(CCCCCCC(=O)Nc1ccccc1)NO [SAHA, suberoylanilide hydroxamic acid, reference compound]",IC50,[1],2870 ± 330 nM
same,LDH release (unspecific cytotoxicity),[2],no relevant induction of unspecific cytotoxicity
same,LDH release (unspecific cytotoxicity),[3],no relevant induction of unspecific cytotoxicity
same,caspase-3 activation,[4],comparable caspase-3 inductions
same,caspase-3 activation,[5],comparable caspase-3 inductions
same,cytosolic ROS formation,[6],much weaker ROS increase
same,cytosolic ROS formation,[7],much weaker ROS increase
same,EGFR protein expression,[8],pronounced and significant suppression in the expression of the EGFR
same,acetylated histone H3 level,[8],dose-dependent rise of H3 acetylation
same,acetylated histone H3 level,[9],dose-dependent rise of H3 acetylation
